Assays:
[1] = In vitro water binding experiments (water retention by loss on drying); type: physicochemical; conditions: for water retention (FIG. 1 and FIG. 2), in words: 3 ml substance over 10 ml distilled water, after mixing
Method: It was postulated that, as a result of the structure of the Meadowestolide prepared in Example 1, which has a carboxylic acid function and an ester linkage in juxtaposition to one another, a considerable degree of hydrogen-bonding and consequent water binding should be evident. Consequently, in vitro experiments to test this theory employing the Meadowestolide, as well as the carefully selected comparative control compounds described below, were conducted.
The Meadowestolide prepared in Example 1 (3 ml) and the control substances (3 ml) were carefully layered over distilled water (10 ml) using a long-nosed pipette, hand mixed for 30 seconds and photographed using a Sony Digital DSC-F505V Camera equipped with a Carl Zeiss Vario-Sonner lens. The degree of water retention was then examined by measuring the “loss on drying” (water removed from lipid phase […]). The upper lipid phase was completely removed using a long-nose pipette and analyzed for water content by “loss on drying” using a drying oven at 105 degrees centigrade until there was no longer any change in weight.

human skin [2] = test: In vivo transepidermal water loss (TEWL), ServoMed Evaporimeter; conditions: one application neat (100%) to forearm, about 2 minutes; twenty subjects; FIG. 3
From the text: (§1) TEWL and tissue hydration (of the stratum comeum) experiments were designed to evaluate the moisture retention properties of the Meadowestolide described in Example 1 in comparison with a relevant oil and a non-polymerized ester. Thus, for these studies, the natural oil to select as a control was Meadowfoam seed oil since it was the precursor oil from which the Meadowestolide was derived. […] Thus, in these experiments, the following substances were compared: (a) Meadowfoam seed oil (triglyceride oil); (b) a long-chain guerbet ester of meadowfoam fatty acid (CH3(CH2)9CH((CH)2O(CO)(CH2)22CH3)((CH2)7CH3); and (c) the Meadowestolide prepared in Example 1.
(§2) These experiments were conducted to assess and compare the moisturizing efficacy of the Meadowestolide and appropriate controls on human skin using a NOVA Technology Corporation (Portsmouth, N.H.) Dermal Phase Meter 9003 (DPM) and a ServoMed Evaporimeter (ServoMed, Sweden). The combined use of these instruments assesses the moisturizing and barrier enhancement properties of topically applied materials. […]
A ServoMed Evaporimeter was used to measure transepidermal water loss (TEWL). A hand-held probe on this meter samples the relative humidity at two points above the skin surface, thereby allowing the rate of water loss to be calculated from the humidity gradient. Measurements are recorded as g/m2/hr. […]

human skin [3] = test: In vivo tissue hydration of the stratum corneum, Dermal Phase Meter 9003; conditions: one application neat (100%) to forearm, FIG. 3
From the text: as §1, §2
In the tissue hydration experiments, a Dermal Phase Meter 9003 was used to quantify moisture content in the stratum comeum (SC) by an electrical capacitance method. […] The Dermal Phase Meter 9003 numbers are directly related to the electrical capacitance of the skin measured as picoFarads (pF).

[4] = Analytical results on purified Meadowestolide (stability); type: physicochemical
From the text: The purified Meadowestolide was identified and subsequently quantified by infrared spectroscopy and HPLC coupled with an evaporative light-scattering detector.

| water bound, relative to Jojoba oil ([1]; 3 ml substance layered over 10 ml distilled water, hand mixed 30 seconds, loss on drying of lipid phase at 105 degrees centigrade, vs Jojoba oil) | water bound, relative to Meadowfoam seed oil and meadowfoam fatty acid ([1]; 3 ml substance layered over 10 ml distilled water, hand mixed 30 seconds, loss on drying of lipid phase at 105 degrees centigrade, vs Meadowfoam seed oil and meadowfoam fatty acid) | stability [4] | SMILES | water retention (FIG. 1 and FIG. 2), in words [1] | transepidermal water loss (TEWL), in words (human skin [2]) | tissue hydration, in comparison with Meadowfoam seed oil, in words (human skin [3]; about 2 minutes, twenty subjects) | hydration capability, in comparison with the guerbet ester of meadowfoam fatty acid, in words (human skin [3]; molecular sizes reasonably equivalent) |
| --- | --- | --- | --- | --- | --- | --- | --- |
| approximately nine | approximately four | extended stability | CCCCCCCCCCCCCC/C=C/CCCC(=O)OC(CCCCCCCCCCCCCCC)CCCC(=O)O (centres unmarked) [Meadowestolide] | capable of binding water to a significant extent | very efficient in preventing water loss | improved hydration | hydration capability exceeds that of a simple ester |
| – | – | – | CCCCCCCCCCCCCCCCC=CCCCC(=O)O [meadowfoam fatty acid, CH3—(CH2)15—(CH)2—(CH2)3—COOH, reference compound] | retained a small quantity of water | – | – | – |
